Experimental findings from patent US20190389843A1, “PYRROLE mTORC INHIBITORS AND USES THEREOF” (Navitor Pharmaceuticals, Inc., priority 2016, published 2019) are described below.

The test system of experiment [1] is pS6K1 in MCF7 (measure of mTORC1 activity). Briefly: AlphaLISA Ultra pS6K1 assay. The format is cell-based. To be noted: Homo sapiens, MCF7, 2 h, MCF-7 cells, 2 hours compound incubation. On the procedure:
(§1) Assay Protocol: • 1. […] 12,000˜16,000 cells will be seeded in 36 μL medium per well. • 2. Change the culture medium with fresh medium and incubate for another 2 hours. • 3. Add 12 μL (4λ) compounds into the cell plate by HAMILTON. Final DMSO concentration is 0.5%. Incubate for 2 hours. • 4. Aspirate 38 μL by HAMILTON, 10 μL rest per well. • 5. Add 10 μL 2× lysis buffer using HAMILTON; total volume in wells is 20 μL. Allow cells to shake for 30 min. Cover plate by plastic foil and store plate at −80° C. up to analysis. • 6. […] Add 5 ul acceptor beads into assay plate and incubation for 2 hours • 8. Add 5 ul donor beads and incubation for 2 hours • 9. Count the plate by EnSpire Multimode Plate Reader
(In general: Alpha assays give light when donor and acceptor beads are brought close together.)

Experiment [2] has as its system pAKT in MCF7 (measure of mTORC2 activity). The experiment in a line: AlphaLISA Ultra pAKT assay. The format is cell-based. The note with it: Homo sapiens, MCF7, 2 h, MCF-7 cells, 2 hours compound incubation. On the procedure:
as §1, with “16,000˜20,000” for “12,000˜16,000”, “(4×)” for “(4λ)”

Where a name gives a salt, the structure may show the parent alone.

One may read the IC50 as the concentration that gives 50% inhibition. A lower IC50 goes with higher potency.

On to `Cn1c(C(=O)N2CCN(c3ccccc3)CC2)cc(CN2CCN(c3ccccc3Cl)CC2)c1C#N` [Example I-36], for which the IC50 in experiment [1] was 10 to 1000 nM; in experiment [2], above 10000 nM.

For the compound `C[C@@H]1CN(Cc2cc(C(=O)N3CCN(c4ccc(F)cc4)CC3)n(C)c2)CCN1c1ccccc1Cl` [Example I-103], the results for the IC50 in experiment [1] and in experiment [2] were 1000 to 3000 nM and above 10000 nM, respectively.

On to `Cc1c(CN2CCN(c3ccccc3Cl)CC2)cc(C(=O)N2CCN(c3ccc(F)c(F)c3)CC2)n1C` [Example I-109, (4-((4-(2-chlorophenyl)piperazin-1-yl)methyl)-1,5-dimethyl-1H-pyrrol-2-yl)(4-(3,4-difluorophenyl)piperazin-1-yl)methanone], for which the IC50 in experiment [1] was 10 to 1000 nM; in experiment [2], above 1000 nM.

Turning to `Cc1ccnc(N2CCN(C(=O)c3cc(CN4CCN(c5ccccc5Cl)CC4)c(C)n3C)CC2)c1` [Example I-70], the values for the IC50 in experiment [1] and in experiment [2] were 10 to 1000 nM and above 3000 nM, respectively.

Take `Cc1c(CN2CCN(c3ccccc3C#N)CC2)cc(C(=O)N2CCN(c3cccc(C#N)c3)C[C@@H]2C)n1C` [Example I-66]: the IC50 in experiment [1] was 10 to 1000 nM; in experiment [2], above 3000 nM.

In the case of `C[C@H]1CN(c2cccc(C#N)c2)CCN1C(=O)c1cc(CN2CCN(c3ccccc3C#N)CC2)cn1C` [Example I-57], the IC50 in experiment [1] was 10 to 1000 nM; in experiment [2], above 3000 nM.

As to `C[C@H]1CN(c2ccccc2C#N)CCN1C(=O)c1cc(CN2CCN(c3ccccc3Cl)CC2)cn1C` [Example I-121, (S)-2-(4-(4-((4-(2-chlorophenyl)piperazin-1-yl)methyl)-1-methyl-1H-pyrrole-2-carbonyl)-3-methylpiperazin-1-yl)benzonitrile], the IC50 in experiment [1] was 10 to 1000 nM; in experiment [2] it was above 1000 nM.

For `Cc1c(CN2CCCN(c3ccccc3Cl)CC2)cc(C(=O)N2CCN(c3ccc(F)cc3)C[C@@H]2C)n1C` [Example I-47, (S)-(4-((4-(2-chlorophenyl)-1,4-diazepan-1-yl)methyl)-1,5-dimethyl-1H-pyrrol-2-yl)(4-(4-fluorophenyl)-2-methylpiperazin-1-yl)methanone], the IC50 was 1000 to 3000 nM in experiment [1] and above 10000 nM in experiment [2].

Regarding `Cc1c(CN2CCN(c3ccccc3Cl)CC2)cc(C(=O)N2CCn3c(nc4ccccc43)C2)n1C` [Example I-91, (4-((4-(2-chlorophenyl)piperazin-1-yl)methyl)-1,5-dimethyl-1H-pyrrol-2-yl)(3,4-dihydrobenzo[4,5]imidazo[1,2-a]pyrazin-2(1H)-yl)methanone], the IC50 was 10 to 1000 nM in experiment [1] and above 5000 nM in experiment [2].

On to `Cc1c(CN2CCN(c3ccccc3C#N)CC2)cc(C(=O)N2CCN(c3cc(C#N)ccn3)CC2)n1C` [Example I-65], for which the IC50 in experiment [1] was 10 to 1000 nM; in experiment [2], above 3000 nM.

As for `Cc1c(CN2CCN(c3ccccc3CCCN)CC2)cc(C(=O)N2CCN(c3ccccc3)C[C@@H]2C)n1C` [Example I-24, (S)-(4-((4-(2-(3-aminopropyl)phenyl)piperazin-1-yl)methyl)-1,5-dimethyl-1H-pyrrol-2-yl)(2-methyl-4-phenylpiperazin-1-yl)methanone ditrifluoroacetate salt], the IC50 in experiment [1] is 3000 to 10000 nM; in experiment [2], above 10000 nM.

Take `Cc1c(CN2CCN(c3ncccc3Cl)CC2)cc(C(=O)N2CCN(c3ccc(F)c(F)c3)C[C@@H]2C)n1C` [Example I-78, (S)-(4-((4-(3-chloropyridin-2-yl)piperazin-1-yl)methyl)-1,5-dimethyl-1H-pyrrol-2-yl)(4-(3,4-difluorophenyl)-2-methylpiperazin-1-yl)methanone]: the results for the IC50 in experiment [1] and in experiment [2] were 10 to 1000 nM and above 3000 nM, respectively.

On to `C[C@H]1CN(c2cc(F)ccc2C#N)CCN1C(=O)c1cc(CN2CCN(c3ccccc3Cl)CC2)cn1C` [Example I-87, (S)-2-(4-(4-((4-(2-chlorophenyl)piperazin-1-yl)methyl)-1-methyl-1H-pyrrole-2-carbonyl)-3-methylpiperazin-1-yl)-4-fluorobenzonitrile], for which the IC50 in experiment [1] is 10 to 1000 nM; in experiment [2], above 5000 nM.

Regarding `Cc1c(CN2CCN(c3ccccc3Cl)CC2)cc(C(=O)N2CCN(c3cccc(CCCN)c3)C[C@H]2C)n1C` [Example I-27, (R)-(4-(3-(3-aminopropyl)phenyl)-2-methylpiperazin-1-yl)(4-((4-(2-chlorophenyl)piperazin-1-yl)methyl)-1,5-dimethyl-1H-pyrrol-2-yl)methanone trifluoroacetate salt], the IC50 in experiment [1] is 1000 to 3000 nM; in experiment [2], above 10000 nM.

With `C[C@H]1CN(c2ccccc2)CCN1C(=O)c1cc(CN2CCN(c3ccccc3Cl)CC2)cn1C` [Example I-136, (S)-(4-((4-(2-chlorophenyl)piperazin-1-yl)methyl)-1-methyl-1H-pyrrol-2-yl)(2-methyl-4-phenylpiperazin-1-yl)methanone], the IC50 was 1000 to 3000 nM in experiment [1] and above 3000 nM in experiment [2].

In the case of `Cc1c(CN2CCN(c3ccccc3Cl)CC2)cc(C(=O)N2CCN(c3cnccn3)C[C@@H]2C)n1C` [Example I-51, (S)-(4-((4-(2-chlorophenyl)piperazin-1-yl)methyl)-1,5-dimethyl-1H-pyrrol-2-yl)(2-methyl-4-(pyrazin-2-yl)piperazin-1-yl)methanone], the IC50 was 10 to 1000 nM in experiment [1] and above 10000 nM in experiment [2].

`Cc1ccccc1N1CCN(Cc2cc(C(=O)N3CCN(c4ccccc4)CC3)n(C)c2)CC1` [Example I-134, (1-methyl-4-((4-o-tolylpiperazin-1-yl)methyl)-1H-pyrrol-2-yl)(4-phenylpiperazin-1-yl)methanone]: the IC50 was 1000 to 3000 nM in experiment [1] and above 3000 nM in experiment [2].

Turning to `COCCn1cc(CN2CCN(c3ccccc3Cl)CC2)cc1C(=O)N1CCN(c2ccccc2)CC1` [Example I-152], the figures for the IC50 in experiment [1] and in experiment [2] were 1000 to 3000 nM and above 10000 nM, respectively.

`Cc1c(CN2CCN(c3ccccc3Cl)CC2)cc(C(=O)N2CCCN(c3cccc(C#N)c3)CC2)n1C` [Example I-40, 3-(4-(4-((4-(2-chlorophenyl)piperazin-1-yl)methyl)-1,5-dimethyl-1H-pyrrole-2-carbonyl)-1,4-diazepan-1-yl)benzonitrile]: the IC50 was 3000 to 10000 nM in experiment [1] and above 10000 nM in experiment [2].

As for `Cc1c(CN2CCN(c3ccccc3Cl)CC2)cc(C(=O)N2CCN(c3cc(F)ccc3C#N)C[C@@H]2C)n1C` [Example I-86, (S)-2-(4-(4-((4-(2-chlorophenyl)piperazin-1-yl)methyl)-1,5-dimethyl-1H-pyrrole-2-carbonyl)-3-methylpiperazin-1-yl)-4-fluorobenzonitrile], the figures for the IC50 in experiment [1] and in experiment [2] were 10 to 1000 nM and above 10000 nM, respectively.

Regarding `Cc1c(CN2CCN(c3ncccc3Cl)CC2)cc(C(=O)N2CCN(c3cc(F)c(F)cc3C#N)CC2)n1C` [Example I-3], the IC50 in experiment [1] was 10 to 1000 nM; in experiment [2], above 10000 nM.

Consider `Cc1c(CN2CCN(c3ccccc3Cl)CC2)cc(C(=O)N2CCN(c3ccc(F)c(F)c3)C[C@@H]2C)n1C` [Example I-116, (S)-(4-((4-(2-chlorophenyl)piperazin-1-yl)methyl)-1,5-dimethyl-1H-pyrrol-2-yl)(4-(3,4-difluorophenyl)-2-methylpiperazin-1-yl)methanone], for which the IC50 in experiment [1] was 10 to 1000 nM; in experiment [2], above 1000 nM.

Consider `Cn1cc(CN2CCC3(CCN(c4ccccc4Cl)C3)C2)cc1C(=O)N1CCN(c2ccc(F)cc2)CC1` (stereo not shown) [Example I-128], for which the IC50 in experiment [1] was 1000 to 3000 nM; in experiment [2], above 10000 nM.

Regarding `Cn1cc(CN2CCN(c3ccc(F)cc3Cl)CC2)cc1C(=O)N1CCN(c2ccc(F)cc2)CC1` [Example I-127], the IC50 in experiment [1] was 1000 to 3000 nM; in experiment [2], above 10000 nM.

Consider `Cc1c(CN2CCN(c3ccccc3Cl)CC2)cc(C(=O)N2CCN(c3cccc(N=[N+]=[N-])c3)C[C@@H]2C)n1C` [Example I-104, (S)-(4-(3-azidophenyl)-2-methylpiperazin-1-yl)(4-((4-(2-chlorophenyl)piperazin-1-yl)methyl)-1,5-dimethyl-1H-pyrrol-2-yl)methanone], for which the IC50 in experiment [1] is 1000 to 3000 nM; in experiment [2], above 5000 nM.

In the case of `Cc1c(CN2CCN(c3ccccc3Cl)CC2)cc(C(=O)N2CCN(c3cccc(C#N)c3)C[C@@H]2C)n1C` [Example I-120, (S)-3-(4-(4-((4-(2-chlorophenyl)piperazin-1-yl)methyl)-1,5-dimethyl-1H-pyrrole-2-carbonyl)-3-methylpiperazin-1-yl)benzonitrile], the IC50 in experiment [1] is 10 to 1000 nM; in experiment [2], above 1000 nM.

`COCCn1cc(CN2CCN(c3ccccc3C(F)(F)F)CC2)cc1C(=O)N1CCN(c2ccccc2)CC1` [Example I-139]: the figures for the IC50 in experiment [1] and in experiment [2] were 3000 to 10000 nM and above 10000 nM, respectively.

As to `Cn1cc(CN2CCN(c3ccccc3Cl)CC2)cc1C(=O)N1CCN(c2ccccn2)CC1` [Example I-122], the IC50 in experiment [1] was 10 to 1000 nM; in experiment [2] it was above 1000 nM.

On to `Cc1c(CN2CCN(c3ccccc3C#N)CC2)cc(C(=O)N2CCN(c3nnccc3C#N)CC2)n1C` [Example I-15], for which the IC50 is 1000 to 3000 nM in experiment [1] and above 10000 nM in experiment [2].
